Data: US8008074B2, “Compositions and methods for improving bone mass through modulation of receptors of PTH and fragments thereof” (The UAB Research Foundation, priority 2006, dated 2011)

Key:
MPK1, RANKL and OPG mRNA = assay: Real-Time PCR of PTH target genes in bone tissue of injected rats; assay type: in vivo, rat; conditions: rats injected with PTH (PTH (1-34))
Source text: Immunohistochemical staining of representative sections with antibody against β-catenin at 10× objective and 40× objective counterstained with hematoxylin from either primary spongliosa subjacent to the epiphyseal growth plates or Spongiosa subjacent to diaphyseal hematopoietic bone marrow of different time points after PTH single injection in rats. […] Each value is the mean±SEM of determinations in three independent slides of each animal and three animals of each group. Panels B and C show graphs of the expression of MPK1 mRNA and the ratio of RANKL/OPG as quantified by real-time PCR in cavaria tissue from the same animals. […] Panel D is a graph showing the numbers of β-catenin-positive osteoblasts as a percent of total osteoblasts per field that were determined. […]
It has been reported that intermittent PTH treatment targeted proliferating cells in the primary spongiosa of young rat distal femur metaphysis, resulting in an increased number of osteoblasts (Oniya, 1995, Bone). […] Quantitation of MPK1, RANKL, OPG, and GAPDH with specific primers was performed using a DNA Engine Opticon continuous fluorescence detection system (MJ Research, Logan, Utah) with SYBR Green I as the method of detection. […] Briefly, quantitative PCR was performed in a total reaction volume of 20 μl per […]. […]

LRP5/6 = assay: Immunostaining of phosphorylated PPPSP motif of LRP5/6 in rat trabecular bone; assay type: in vivo; conditions: rats, single PTH injection
Method: To further examine whether LRP5/6 mediates PTH-elevated β-catenin levels in vivo, trabecular bone sections were immunostained with the antibody against phosphorylated PPPSP motif. Formalin-fixed tissue sections of 5 μm thickness were deparaffinized in xylene and rehydrated in graded alcohols. Antigen retrieval was achieved by incubating tissue sections in boiling 10 mmol/L citrate buffer (pH 6.0) for 5 minutes in a microwave oven. All sections were then incubated with hydrogen peroxide for 5 minutes. Subsequently, sections were incubated with the primary antibodies against β-catenin or LRP6 1490 for 1 hour at room temperature. After rinsing the primary antibody in T-PBS, antibody detection was accomplished using the Super Sensitive biotin-streptavidin horseradish peroxidase detection kit (Biogenex, San Ramon, Calif.). The diaminobenzidine tetrachloride Super Sensitive substrate kit (Biogenex, San Ramon, Calif.) was used to visualize the antibody-antigen complex. The sections were then counterstained with hematoxylin. Appropriate negative controls, consisting of tissue sections of each case processed without the addition of primary antibody, were prepared along with positive multitissue control sections. Only those cases with greater than 10% immunohistochemical stains were considered as positive. Assessment of the immunohistochemical staining was performed independently by two pathologists. Contrasting results were discussed until an agreement was reached.
The pattern of phosphorylated LRP5/6 was correlated with the changes of β-catenin levels induced by PTH in Rat osteoblasts.

LRP5/Axin binding = assay: Axin-LRP5 binding immunoprecipitation; assay type: cell-based; conditions: significantly induced at 30 minutes; data not shown
Source text: If the observation is true, then the phosphorylated PPPSP motif will serve as an Axin docking site.
GSK3β is involved in PTH-stimulated LRP6 phosphorylation at its PPPSP motifs. However, the phosphorylation of LRP5 by PTH was very strong and seems GSK3β-unrelated. Since LRP6N, the extracellular domain with transmembrane region, functions as dominant-negative, we examined whether it inhibits PTH-induced Axin binding with LRP5/6.

PTH: Parathyroid hormone ligand, form not stated at the place; figure legends give PTH (1-84) or PTH (1-34)
MPK1 mRNA expression (MPK1, RANKL and OPG mRNA): stimulated MPK1 mRNA expression
ratio of RANKL/OPG (MPK1, RANKL and OPG mRNA): increased
peak of LRP5/6 phosphorylation after PTH injection (LRP5/6): 8 h
start of LRP5/6 phosphorylation after PTH injection (LRP5/6): 2 h
LRP5/6 phosphorylation at 24 hours (LRP5/6; 24 hours): disappearing
phosphorylation of LRP5/6 in preosteoblasts/osteoblasts at the surface of trabecular bone (LRP5/6; data not shown): enhanced phosphorylation of LRP5/6
total LRP5/6 protein level in osteoblasts of rat tibia bone (LRP5/6; data not shown): remained unchanged
binding of Axin to LRP5 (LRP5/Axin binding): induced binding of Axin to LRP5
